According to publication PMC4980431, “Ctf4 Is a Hub in the Eukaryotic Replisome that Links Multiple CIP-Box Proteins to the CMG Helicase” (Molecular Cell, 2016):
Numbering of substitutions follows the chain as printed. Names and notes keep the numbering of the source. Where a SMILES comes first, the peptide text is derived from it.

Legend:
Ctf4 471-927 (Ctf4CTD) = biological target: T1, Ctf4 471-927 (Ctf4CTD) (Saccharomyces cerevisiae, UniProt Q01454); assay: Fluorescence anisotropy, peptide binding to Ctf4 471-927; parameters: species or system budding yeast; conditions: legend of Figure S3C; 50 nM fluorescein-labeled Dna2 peptide, pH 7.2, 25°C; mean of three independent experiments
T1 sequence (Q01454 471-927): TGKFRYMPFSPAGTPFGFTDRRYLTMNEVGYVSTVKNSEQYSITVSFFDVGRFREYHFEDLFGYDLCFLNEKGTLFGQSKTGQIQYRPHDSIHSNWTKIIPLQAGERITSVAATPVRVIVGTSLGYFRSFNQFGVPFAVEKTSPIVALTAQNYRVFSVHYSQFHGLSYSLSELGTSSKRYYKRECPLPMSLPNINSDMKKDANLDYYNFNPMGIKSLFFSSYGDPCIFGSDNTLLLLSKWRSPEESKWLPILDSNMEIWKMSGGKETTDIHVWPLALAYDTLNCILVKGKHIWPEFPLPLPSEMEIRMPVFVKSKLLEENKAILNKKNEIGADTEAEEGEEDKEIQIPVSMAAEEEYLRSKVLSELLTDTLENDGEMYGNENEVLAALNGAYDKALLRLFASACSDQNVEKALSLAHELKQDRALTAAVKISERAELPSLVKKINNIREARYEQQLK
Method: The lowest concentration of peptide at which the binding studies could be performed was determined via peptide calibration curves. Fluorescence anisotropy measurements were recorded in a PHERAstar Plus multi-detection plate reader (BMG Labtech) equipped with fluorescence polarization optic module (λex = 485 nm; λem = 520 nm) at 25°C. Each data point is the mean of 200 flashes/well. The voltage gain was set by adjusting the target mP values of fluorescein-labeled peptides relative to that of fluorescein (35 mP). Serial dilutions of Ctf4CTD were made in 20 mM HEPES (pH 7.2), 140 mM KCl, and 5% (w/v) glycerol in the presence of 40 nM (Sld5 and Tof2) or 50 nM (Dna2) fluorescein-labeled peptide. For Dna2 peptide, each data point is the mean of three independent experiments and curve fitting to the experimental data was performed in pro Fit 6.2 (QuantumSoft) using a Levenberg-Marquardt fitting algorithm in combination with a Gaussian error distribution analysis.

[1] = tested on: budding yeast cells (W303 background); assay: Yeast growth in the presence of hydroxyurea; type: cell-based
Method: (§1) Yeast growth, two-hybrid analysis, and immunoprecipitation experiments were performed as described in detail previously ([Maculins et al., 2015], [Maric et al., 2014]). A two-hybrid screen against amino acids 461–927 of Ctf4 was performed by the company Hybrigenics.

[2] = biological target: the molecule itself; assay: SEC-MALS; 100 μl at 2 mg/ml on Superdex S200 HR 10/300 in 20 mM HEPES pH 7.2, 160 mM NaCl, 0.5 ml/min
CMG helicase = assay: Co-purification with CMG helicase from yeast cell extracts; type: cell-based, budding yeast; conditions: extracts of S phase yeast cells; immunoprecipitation, immunoblotting
Method: (D) Cultures of ctf4-4E MCM4-9MYC (YFV13) and MCM4-9MYC control cells (YSS75) were synchronized in G1-phase at 30°C and then released into S phase for 20 min. The Mcm4-9MYC was isolated from cell extracts by immunoprecipitation and the associated proteins monitored by immunoblotting. (E) ctf4-4E is synthetic lethal with mrc1Δ. The cells were processed as in Figure 1A, and the photos in the lower images were taken after 20 hr growth at 30°C (the scale bars represent 50 μm). See also Figure S2. TEXT PRINTED IN THE PICTURE: (C) Ctf4-4E (471-927): 162 kDa
as §1

**Q.** With `CC[C@H](C)[C@H](NC(=O)[C@H](CC(=O)O)NC(=O)[C@H](CC(=O)O)NC(=O)[C@H](CC(C)C)NC(=O)[C@@H](NC(=O)[C@H](CC(=O)O)NC(=O)[C@H](CC(=O)O)NC(=O)[C@@H](NC(=O)[C@H](CC(N)=O)NC(=O)[C@H](CCCNC(=N)N)NC(=O)[C@H](CC(C)C)NC(=O)[C@@H](N)CO)[C@@H](C)CC)[C@@H](C)CC)C(=O)N[C@@H](CCC(=O)O)C(=O)NCC(=O)N[C@@H](CC(=O)O)C(=O)N[C@@H](CC(C)C)C(=O)N[C@H](C(=O)O)[C@@H](C)O` [Dna2 peptide (207-223)] (H-SLRNIDDILDDIEGDLT-OH) as the molecule, how does the Kd (Ctf4 471-927 (Ctf4CTD)) read?
**A.** The Kd was 229 µM.

**Q.** How did the “sensitivity to hydroxyurea, ctf4-3E cells (in words)” value ([1]; ctf4-3E cells compared with ctf4Δ, Figure 5F) turn out when `NC(=O)NO` [hydroxyurea] was run?
**A.** Its value is “do not share the sensitivity of ctf4Δ cells”.

**Q.** What about the “sensitivity to hydroxyurea, pol1-4A cells (in words)” value ([1]; pol1-4A cells, in contrast to ctf4Δ, Figure 1B) of the same molecule?
**A.** Its value is “does not cause sensitivity”.

B1: Ctf4-4E 471–927 (domain or fragment, budding yeast, UniProt Q01454 471-927, looked up)
chain: T1 sequence (Q01454 471-927) with L397E, A401E, A427E, I431E
notes: also called Ctf4CTD 4E mutant protein; source: purified protein
**Q.** B1 was tested. Which “stoichiometry N” value [2] did it give?
**A.** Its value is 3.

B2: Ctf4 471–927 (domain or fragment, budding yeast, UniProt Q01454 471-927, looked up)
chain: T1 sequence (Q01454 471-927)
notes: also called Ctf4CTD; source: purified Ctf4CTD protein
**Q.** With B2 as the molecule, how does the “stoichiometry N” value [2] read?
**A.** Its value is 3.

B3: Ctf4-I901E: Ctf4 with glutamate mutation of I901 (protein)
chain: MVSVIDKLVFDFGGKTLVSLAPDNNTLCVANKNGLTKILKTNNPEEEPETLDSSKLVSSIKCYSNSHFLMTTMQGDALRYNIDSSQEELLARFALPLRDCCVIHSGKMAVFGGDDLELILLELDDETHKKHAIKIDEQVSQISYNSQMNILAVSMINGKVQIFSLTSTIPNKVHELNDYIVANSYDDTHRDKILSNMMDDIDKDNDNDLSETADPDENNVADPEFCAANRICTRVAWHPKGLHFALPCADDTVKIFSIKGYSLQKTLSTNLSSTKAHFIDLQFDPLRGTYIAAVDLNNKLTVWNWETSEIHYTREFKRKITNIAWKIQADSKTLDLVLGTWSGSIAIVQNLAESVVSNIPDQSVAESSTKHGLFVDSESDLENLEGNDDINKSDKLFSDITQEANAEDVFTQTHDGPSGLSEKRKYNFEDEEDFIDDDDGAGYISGKKPHNEHSYSRVHKTHSFPISLANTGKFRYMPFSPAGTPFGFTDRRYLTMNEVGYVSTVKNSEQYSITVSFFDVGRFREYHFEDLFGYDLCFLNEKGTLFGQSKTGQIQYRPHDSIHSNWTKIIPLQAGERITSVAATPVRVIVGTSLGYFRSFNQFGVPFAVEKTSPIVALTAQNYRVFSVHYSQFHGLSYSLSELGTSSKRYYKRECPLPMSLPNINSDMKKDANLDYYNFNPMGIKSLFFSSYGDPCIFGSDNTLLLLSKWRSPEESKWLPILDSNMEIWKMSGGKETTDIHVWPLALAYDTLNCILVKGKHIWPEFPLPLPSEMEIRMPVFVKSKLLEENKAILNKKNEIGADTEAEEGEEDKEIQIPVSMAAEEEYLRSKVLSELLTDTLENDGEMYGNENEVLAALNGAYDKALLRLFASACSDQNVEKALSLAHELKQDRALTAAVKESERAELPSLVKKINNIREARYEQQLK
**Q.** With B3 as the molecule, how does the “association with CMG helicase (in words)” value (CMG helicase) read?
**A.** The value was “unable to interact with the CMG helicase”.
